Source: ChEMBL document CHEMBL1201862, “PubChem BioAssay data set” (2004)
The source made the active and inactive calls.

Key:
[1] = molecular target: Glycogen synthase kinase-3 beta (Homo sapiens, UniProt P49841); test: GSK3beta kinase inhibitors, dose response, biochemical, microfluidics, dry powder samples, set 2 (AID 623989); format: functional
[2] = A cell-based HTS for delayed death inhibitors of the malarial parasite plastid Measured in Microorganism System Using Plate Reader - 2126-02_Inhibitor_Dose_DryPowder_Activity.; format: functional, organism-based
[3] = FACS-based assay to assess parasite growth inhibition 48 hr Measured in Cell-Based System Using Flow Cytometry - 2126-03_Inhibitor_Dose_DryPowder_Activity. [Related pubchem assays (depositor defined):AID488774]; format: functional; conditions: Homo sapiens
[4] = A cell-based HTS for delayed death inhibitors of the malarial parasite plastid Measured in Microorganism System Using Plate Reader - 2126-01_Inhibitor_Dose_DryPowder_Activity.; format: functional, organism-based
Erythrocyte = test: FACS-based assay to assess parasite growth inhibition 96 hr Measured in Cell-Based System Using Flow Cytometry - 2126-05_Inhibitor_Dose_DryPowder_Activity. [Related pubchem assays (depositor defined):AID488774]; format: functional; conditions: Homo sapiens
Ion channel NompC = Ion channel NompC (Danio rerio, UniProt Q7T1G6); test: Dose response cell-based high-throughput screening assay for agonists of the transient receptor potential channel N1 (TRPN1). [Related pubchem assays (depositor defined):AID1424, AID1448]; format: functional
[5] = molecular target: Multidrug resistance protein CDR2 (Candida albicans (strain SC5314 / ATCC MYA-2876) (Yeast), UniProt P78595); test: CaCDR2 efflux pump inhibitors in yeast, dose response, S. cerevisiae AD1-8u, singleplex, Cherry Pick1 hits (AID 588604); format: functional
Mucolipin-3 = molecular target: T1, Mucolipin-3 (Homo sapiens, UniProt Q8TDD5); test: Fluorescence counterscreen assay for […] agonists: dose response cell-based high-throughput screening assay to identify agonists of the transient receptor potential channel ML3 (TRPML3). [Related pubchem assays: 1424, 1448 ]; format: functional
T1 sequence (Q8TDD5 whole entry): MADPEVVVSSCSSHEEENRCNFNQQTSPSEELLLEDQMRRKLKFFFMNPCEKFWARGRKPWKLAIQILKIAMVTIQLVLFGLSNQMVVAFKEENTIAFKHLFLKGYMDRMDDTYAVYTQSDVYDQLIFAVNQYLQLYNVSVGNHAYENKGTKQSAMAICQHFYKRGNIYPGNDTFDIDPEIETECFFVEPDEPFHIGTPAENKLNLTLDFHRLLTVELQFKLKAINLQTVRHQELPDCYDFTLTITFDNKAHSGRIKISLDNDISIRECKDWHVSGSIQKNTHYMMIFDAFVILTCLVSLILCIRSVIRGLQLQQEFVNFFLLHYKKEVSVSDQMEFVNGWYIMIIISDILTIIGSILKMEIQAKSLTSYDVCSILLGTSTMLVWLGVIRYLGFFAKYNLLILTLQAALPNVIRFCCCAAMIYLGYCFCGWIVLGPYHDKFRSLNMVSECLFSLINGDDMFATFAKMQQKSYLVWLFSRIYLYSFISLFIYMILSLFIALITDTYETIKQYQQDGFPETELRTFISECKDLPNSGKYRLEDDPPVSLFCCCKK

Troponin, cardiac muscle = Troponin, cardiac muscle (Homo sapiens, UniProt P19429+P45379+P63316); test: Fluorescence-based biochemical high throughput dose response assay for activators of the calcium sensitivity of cardiac Regulated Thin Filaments (RTF). [Related pubchem assays (depositor defined):AID493008, AID493018, AID504382, AID504383]; format: protein-complex assay
[6] = Vero cell cytotoxicity, dose response, cytotoxicity control for M. tuberculosis growth inhibitor project, Vero cells, purified and synthesized compounds, set 4 (AID 504854); format: functional; conditions: Mycobacterium tuberculosis
[7] = THP-1 cell cytotoxicity, cytotoxicity control, set 4 (AID 504911); format: functional; conditions: Mycobacterium tuberculosis
[8] = THP-1 cell cytotoxicity, dose response, cytotoxicity control, set 3 (AID 504852); format: functional; conditions: Mycobacterium tuberculosis
[9] = molecular target: Cyclin-dependent kinase 9 (Homo sapiens, UniProt P50750); format: functional;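 note: value from the CDK9 entry of a kinome-spanning kinase panel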
[10] = molecular target: Serine/threonine-protein kinase Chk1 (Homo sapiens, UniProt O14757); format: functional;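 note: measured as one member of a kinome-wide kinase profiling panel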
Chain of Serine/threonine-protein kinase Chk1 (O14757 whole entry): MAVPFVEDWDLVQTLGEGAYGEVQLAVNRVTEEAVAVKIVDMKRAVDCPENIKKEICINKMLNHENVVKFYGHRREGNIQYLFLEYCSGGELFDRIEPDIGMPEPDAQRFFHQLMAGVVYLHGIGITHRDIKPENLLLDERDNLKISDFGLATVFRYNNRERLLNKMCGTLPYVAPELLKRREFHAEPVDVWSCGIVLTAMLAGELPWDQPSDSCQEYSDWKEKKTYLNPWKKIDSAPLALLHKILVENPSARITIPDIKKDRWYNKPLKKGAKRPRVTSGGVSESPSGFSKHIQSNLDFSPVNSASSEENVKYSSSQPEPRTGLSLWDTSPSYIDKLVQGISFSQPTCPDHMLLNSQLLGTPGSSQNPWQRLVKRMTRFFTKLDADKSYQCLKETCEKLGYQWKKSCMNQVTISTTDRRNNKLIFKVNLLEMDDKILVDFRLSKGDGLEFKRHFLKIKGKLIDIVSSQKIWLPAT

[11] = molecular target: Leucine-rich repeat serine/threonine-protein kinase 2 (Homo sapiens, UniProt Q5S007); format: functional;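 note: value from a broad kinome-wide panel profiling study in which LRRK2 was one of the kinases tested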
[12] = molecular target: Leukocyte tyrosine kinase receptor (Homo sapiens, UniProt P29376); test: Navigating the Kinome. Panel member name: LTK; format: functional
Chain of Leukocyte tyrosine kinase receptor (P29376 whole entry): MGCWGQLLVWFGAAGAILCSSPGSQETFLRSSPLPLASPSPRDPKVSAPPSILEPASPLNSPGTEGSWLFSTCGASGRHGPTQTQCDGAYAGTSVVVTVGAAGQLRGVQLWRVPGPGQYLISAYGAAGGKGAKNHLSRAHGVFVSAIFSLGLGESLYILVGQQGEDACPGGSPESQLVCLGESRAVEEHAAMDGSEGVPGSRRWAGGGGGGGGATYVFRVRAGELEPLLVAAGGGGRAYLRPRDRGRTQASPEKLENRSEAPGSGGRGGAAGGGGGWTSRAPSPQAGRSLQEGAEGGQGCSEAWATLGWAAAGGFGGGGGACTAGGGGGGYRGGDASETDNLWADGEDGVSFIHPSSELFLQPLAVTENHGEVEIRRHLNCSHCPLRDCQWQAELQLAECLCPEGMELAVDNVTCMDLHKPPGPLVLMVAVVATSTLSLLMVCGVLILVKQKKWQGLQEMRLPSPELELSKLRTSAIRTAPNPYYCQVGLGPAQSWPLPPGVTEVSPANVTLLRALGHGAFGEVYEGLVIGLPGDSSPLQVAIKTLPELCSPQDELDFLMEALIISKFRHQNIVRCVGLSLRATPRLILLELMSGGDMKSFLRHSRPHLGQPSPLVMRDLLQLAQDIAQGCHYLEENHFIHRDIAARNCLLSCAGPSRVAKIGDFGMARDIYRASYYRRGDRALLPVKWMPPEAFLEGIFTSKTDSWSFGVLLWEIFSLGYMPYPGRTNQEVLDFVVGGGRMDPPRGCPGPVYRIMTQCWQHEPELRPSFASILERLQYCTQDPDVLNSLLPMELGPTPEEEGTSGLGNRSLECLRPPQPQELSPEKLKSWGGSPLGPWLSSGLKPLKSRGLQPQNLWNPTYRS

[13] = molecular target: cAMP-dependent protein kinase catalytic subunit PRKX (Homo sapiens, UniProt P51817); format: functional
Chain of cAMP-dependent protein kinase catalytic subunit PRKX (P51817 whole entry): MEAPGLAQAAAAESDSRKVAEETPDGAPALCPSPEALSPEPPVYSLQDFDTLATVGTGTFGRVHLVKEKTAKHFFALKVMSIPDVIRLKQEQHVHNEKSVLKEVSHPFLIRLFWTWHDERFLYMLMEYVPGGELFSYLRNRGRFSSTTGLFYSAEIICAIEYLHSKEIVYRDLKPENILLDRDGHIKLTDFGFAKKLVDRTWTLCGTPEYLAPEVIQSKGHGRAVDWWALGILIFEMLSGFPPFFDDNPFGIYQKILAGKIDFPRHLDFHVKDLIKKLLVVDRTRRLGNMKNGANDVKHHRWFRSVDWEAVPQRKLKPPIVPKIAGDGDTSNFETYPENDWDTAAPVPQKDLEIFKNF

[14] = molecular target: Hepatocyte growth factor receptor (Homo sapiens, UniProt P08581); format: functional;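 note: kinase panel profiling across the kinome, with MET as the panel member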
Chain of Hepatocyte growth factor receptor (P08581 whole entry): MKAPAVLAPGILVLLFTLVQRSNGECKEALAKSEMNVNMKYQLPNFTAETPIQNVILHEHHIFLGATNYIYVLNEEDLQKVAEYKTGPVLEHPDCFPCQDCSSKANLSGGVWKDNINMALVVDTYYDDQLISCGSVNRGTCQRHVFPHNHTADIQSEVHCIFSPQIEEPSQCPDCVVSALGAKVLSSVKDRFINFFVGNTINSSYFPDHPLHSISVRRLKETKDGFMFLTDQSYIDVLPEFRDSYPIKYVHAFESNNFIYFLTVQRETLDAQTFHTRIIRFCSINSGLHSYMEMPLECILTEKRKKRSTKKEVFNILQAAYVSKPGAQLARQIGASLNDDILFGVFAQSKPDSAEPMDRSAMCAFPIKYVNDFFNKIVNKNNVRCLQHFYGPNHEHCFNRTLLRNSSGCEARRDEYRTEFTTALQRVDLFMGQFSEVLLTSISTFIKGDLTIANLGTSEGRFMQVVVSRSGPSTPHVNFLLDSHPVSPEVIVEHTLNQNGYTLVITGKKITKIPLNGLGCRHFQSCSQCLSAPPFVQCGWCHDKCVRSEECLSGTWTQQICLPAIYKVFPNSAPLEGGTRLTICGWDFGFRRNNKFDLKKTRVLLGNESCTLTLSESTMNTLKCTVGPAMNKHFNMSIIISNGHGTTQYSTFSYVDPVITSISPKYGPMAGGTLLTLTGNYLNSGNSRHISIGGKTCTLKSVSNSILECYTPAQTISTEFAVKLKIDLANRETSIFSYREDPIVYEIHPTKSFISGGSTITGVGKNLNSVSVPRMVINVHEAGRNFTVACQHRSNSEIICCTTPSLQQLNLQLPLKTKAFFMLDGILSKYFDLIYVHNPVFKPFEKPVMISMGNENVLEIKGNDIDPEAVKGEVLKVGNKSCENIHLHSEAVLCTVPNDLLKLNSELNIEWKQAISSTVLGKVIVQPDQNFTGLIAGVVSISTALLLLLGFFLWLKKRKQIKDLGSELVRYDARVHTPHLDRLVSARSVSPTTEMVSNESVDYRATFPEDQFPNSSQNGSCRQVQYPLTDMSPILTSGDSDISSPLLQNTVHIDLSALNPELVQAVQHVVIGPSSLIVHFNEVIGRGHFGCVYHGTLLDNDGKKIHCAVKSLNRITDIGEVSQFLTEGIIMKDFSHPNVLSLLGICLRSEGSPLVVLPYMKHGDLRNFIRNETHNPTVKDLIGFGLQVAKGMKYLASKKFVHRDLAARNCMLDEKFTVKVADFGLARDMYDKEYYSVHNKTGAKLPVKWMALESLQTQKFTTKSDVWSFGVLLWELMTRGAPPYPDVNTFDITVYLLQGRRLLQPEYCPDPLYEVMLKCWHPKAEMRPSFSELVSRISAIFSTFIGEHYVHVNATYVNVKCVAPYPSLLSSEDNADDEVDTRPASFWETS

[15] = molecular target: Dual specificity protein kinase CLK4 (Homo sapiens, UniProt Q9HAZ1); format: functional
[16] = molecular target: T2, High affinity choline transporter 1 (Homo sapiens, UniProt Q9GZV3); test: CHT activators, dose response, cell-based, 10-point CRC, membrane potential dye (AID 602376); format: functional
T2 sequence (Q9GZV3 whole entry): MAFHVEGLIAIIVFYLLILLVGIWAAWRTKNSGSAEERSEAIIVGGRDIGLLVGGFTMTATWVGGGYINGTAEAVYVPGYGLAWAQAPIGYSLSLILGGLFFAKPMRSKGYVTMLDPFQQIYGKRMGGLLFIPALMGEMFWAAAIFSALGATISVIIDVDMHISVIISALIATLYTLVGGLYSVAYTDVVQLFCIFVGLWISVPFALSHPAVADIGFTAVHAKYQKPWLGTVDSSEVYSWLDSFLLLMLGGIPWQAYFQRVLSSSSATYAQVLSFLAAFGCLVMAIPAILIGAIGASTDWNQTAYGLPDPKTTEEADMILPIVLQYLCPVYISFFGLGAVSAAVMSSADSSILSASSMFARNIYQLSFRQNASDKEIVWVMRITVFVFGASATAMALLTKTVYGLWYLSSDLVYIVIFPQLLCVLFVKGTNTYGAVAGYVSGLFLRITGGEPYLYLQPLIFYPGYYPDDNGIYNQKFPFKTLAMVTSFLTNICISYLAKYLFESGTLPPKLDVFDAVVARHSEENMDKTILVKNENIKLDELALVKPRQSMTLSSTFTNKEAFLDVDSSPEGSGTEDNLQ

[17] = molecular target: Tyrosine-protein kinase Lck (Homo sapiens, UniProt P06239); format: functional;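 note: lck was assayed as one member of a kinase panel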
[18] = molecular target: Vascular endothelial growth factor receptor 2 (Homo sapiens, UniProt P35968); format: functional
[19] = molecular target: Cell division cycle 7-related protein kinase (Homo sapiens, UniProt O00311); format: functional;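 note: value obtained from a kinome-wide kinase panel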
Chain of Cell division cycle 7-related protein kinase (O00311 whole entry): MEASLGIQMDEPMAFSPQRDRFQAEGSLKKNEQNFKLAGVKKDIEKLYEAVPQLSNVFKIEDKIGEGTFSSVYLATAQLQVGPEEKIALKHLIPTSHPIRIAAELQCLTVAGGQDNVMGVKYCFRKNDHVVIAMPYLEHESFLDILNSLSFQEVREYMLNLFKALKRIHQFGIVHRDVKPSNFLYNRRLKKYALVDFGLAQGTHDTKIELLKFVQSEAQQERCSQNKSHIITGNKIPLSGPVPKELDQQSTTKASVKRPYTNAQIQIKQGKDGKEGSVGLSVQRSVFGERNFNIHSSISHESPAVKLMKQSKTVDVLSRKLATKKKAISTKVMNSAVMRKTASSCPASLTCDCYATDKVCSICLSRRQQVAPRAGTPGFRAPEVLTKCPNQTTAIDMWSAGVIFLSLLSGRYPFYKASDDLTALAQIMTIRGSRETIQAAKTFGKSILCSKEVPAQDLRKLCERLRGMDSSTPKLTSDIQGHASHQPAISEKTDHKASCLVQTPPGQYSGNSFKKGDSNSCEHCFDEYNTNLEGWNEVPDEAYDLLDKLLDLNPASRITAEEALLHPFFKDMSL

[20] = molecular target: G protein-coupled receptor kinase 5 (Homo sapiens, UniProt P34947); test: Navigating the Kinome. Panel member name: GPRK5; format: functional
Aurora kinase B = Aurora kinase B (Homo sapiens, UniProt Q96GD4); format: functional
Chain of Aurora kinase B (Q96GD4 whole entry): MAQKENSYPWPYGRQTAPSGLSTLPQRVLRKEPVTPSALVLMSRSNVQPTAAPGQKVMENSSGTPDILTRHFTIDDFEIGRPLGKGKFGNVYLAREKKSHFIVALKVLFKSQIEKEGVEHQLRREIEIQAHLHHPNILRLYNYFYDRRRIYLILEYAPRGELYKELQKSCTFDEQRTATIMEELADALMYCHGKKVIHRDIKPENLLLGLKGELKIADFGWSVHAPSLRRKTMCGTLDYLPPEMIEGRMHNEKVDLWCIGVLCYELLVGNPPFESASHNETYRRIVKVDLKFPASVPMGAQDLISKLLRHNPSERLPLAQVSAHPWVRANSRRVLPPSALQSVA

Aurora kinase A = Aurora kinase A (Homo sapiens, UniProt O14965); format: functional;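 note: value from the Navigating the Kinome kinase panel profiling, panel entry STK6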
Chain of Aurora kinase A (O14965 whole entry): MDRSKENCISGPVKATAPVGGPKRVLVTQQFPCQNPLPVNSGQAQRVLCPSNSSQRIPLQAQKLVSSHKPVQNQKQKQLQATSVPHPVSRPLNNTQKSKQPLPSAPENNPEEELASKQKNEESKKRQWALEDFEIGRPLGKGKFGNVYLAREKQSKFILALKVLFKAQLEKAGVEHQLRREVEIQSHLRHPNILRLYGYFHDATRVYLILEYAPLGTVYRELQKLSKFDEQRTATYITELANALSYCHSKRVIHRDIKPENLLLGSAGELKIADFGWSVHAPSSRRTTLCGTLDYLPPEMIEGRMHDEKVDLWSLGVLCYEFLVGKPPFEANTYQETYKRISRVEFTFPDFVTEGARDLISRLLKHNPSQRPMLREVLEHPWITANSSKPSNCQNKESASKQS

[21] = molecular target: Melanin-concentrating hormone receptor 1 (Homo sapiens, UniProt Q99705); test: Late-stage fluorescence-based counterscreen for antagonists of the G-protein coupled receptor 7 (GPR7): cell-based dose response assay to identify antagonists of the melanin-concentrating hormone receptor 1 (MCHR1) Set 5.; format: functional
Chain of Melanin-concentrating hormone receptor 1 (Q99705 whole entry): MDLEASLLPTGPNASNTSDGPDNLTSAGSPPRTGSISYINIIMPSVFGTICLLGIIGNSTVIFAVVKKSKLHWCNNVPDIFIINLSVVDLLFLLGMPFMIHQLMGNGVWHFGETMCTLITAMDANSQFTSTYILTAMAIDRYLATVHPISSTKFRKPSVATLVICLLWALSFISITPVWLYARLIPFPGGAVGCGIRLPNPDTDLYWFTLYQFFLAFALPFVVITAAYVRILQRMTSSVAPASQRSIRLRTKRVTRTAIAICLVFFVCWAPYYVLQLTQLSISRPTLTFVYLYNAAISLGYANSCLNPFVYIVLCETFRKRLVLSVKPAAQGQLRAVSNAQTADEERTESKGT

[22] = molecular target: Neuropeptides B/W receptor type 1 (Homo sapiens, UniProt P48145); test: GPR7 antagonist potency, late-stage follow-up, cell-based, fluorescence, dose response, set 5 (AID 588566); format: functional
[23] = nonselective inhibitors of cellular cAMP signaling, dose response, counter-screen for MC4R biased antagonist project, cell-based, TR-FRET cAMP detection (AID 602305); format: functional;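 note: U2OS cells stimulated with forskolin near its EC80 as the cAMP inducer; potency is for inhibition of forskolin-stimulated cAMP signaling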
Melanocortin receptor 4 = Melanocortin receptor 4 (Homo sapiens, UniProt P32245); test: MC4R antagonist potency on cAMP, dose response, cell-based, TR-FRET, biased antagonists (AID 602298); format: functional;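 note: antagonist potency against agonist-stimulated cAMP production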

In the case of `Cc1ccc(S(=O)(=O)N2CCN(CC(=O)N/N=C/c3ccccn3)CC2)cc1`, the AC50 [1] is reported as 13.7 µM (active).

For `Cc1noc(C)c1NC(=O)Nc1ccc2c(c1)C(=O)N([C@@H](C)CO)C[C@@H](C)[C@H](CN(C)S(=O)(=O)c1ccc(F)cc1)OCCCC[C@H](C)O2`, the AC50 [2] was 0.57 µM (active), the AC50 [3] was 0.609 µM (active) and the AC50 [4] was 0.697 µM (active). The AC50 (Erythrocyte) was 0.697 µM (active).

With `C=CCn1c(=O)[nH]c2nc3cc(/N=C/N(C)C)c(C)cc3nc2c1=O` the EC50 (Ion channel NompC) was 3.27 µM (active), the EC50 [5] was 1.62 µM (active) and the EC50 (Mucolipin-3) was 5.89 µM (active). The EC50 (Troponin, cardiac muscle) was 1.86 µM (active).

For `CNC(=O)CSc1nc2ccccc2c(=O)[nH]1`, the CC50 [6] was > 100 µM (active), the CC50 [7] was > 100 µM (active) and the CC50 [8] was > 100 µM (active).

With `Cc1csc2nc(N)nn12` the Ki [9] was 50.1 µM (active), the Ki [10] was 31.6 µM (active) and the Ki [11] was 39.8 µM (active). The Ki [12] was 79.4 µM (active), the Ki [13] was 79.4 µM (active) and the Ki [14] was 79.4 µM (active). For the same compound, the Ki [15] was 31.6 µM (active).

For `CC(C)COP(=O)(OCC(C)C)C(Nc1ccccc1)c1ccc(F)cc1` (stereo not given), the EC50 [16] was 12.2 µM (active).

For `O=C(Nc1cccc(-c2nc3sccn3c2-c2ccnc(Nc3ccccc3Cl)n2)c1)c1ccccc1`, the Ki [17] was 3.98 µM (active) and the Ki [18] was 0.794 µM (active).

In the case of `CC(C)(C)c1cnc(CSc2cnc(NC(=O)C3CCNCC3)s2)o1` [BMS-387032], the Ki [19] is reported as > 3.98 µM (inactive) and the Ki [20] is reported as > 3.98 µM (inactive).

With `Cc1ccc(-c2nc3ccc(Br)cc3c(C(=O)O)c2CC(=O)O)cc1C` the Ki (Aurora kinase B) was 0.126 µM (active) and the Ki (Aurora kinase A) was 0.0631 µM (active).

For `CCOc1ccc(Oc2c(Cl)c(N3CCCCC3)nn(Cc3cccc4ccccc34)c2=O)cc1`, the IC50 [21] was > 20 µM (inactive) and the IC50 [22] was > 20 µM (inactive).

For `CN(C(=O)COC(=O)CNC(=O)c1ccc(Cl)cc1Cl)c1ccccc1`, the IC50 [23] was > 64.6 µM (inactive) and the IC50 (Melanocortin receptor 4) was > 64.6 µM (inactive).
